Measurements: patent publication US12077503B2, “Substituted cyclic amides and their use as herbicides” (FMC CORPORATION, priority 2015, dated 2024)

Key:
Type in all cases: in vivo
[1] = test system: giant foxtail (Setaria faberii); test: Test A preemergence; details: Setaria faberi, pre-emergence, 240 h, preemergence, 0 to 100 scale where 0 is no effect and 100 is complete control, read-out: Foxtail, Giant plant response rating
Outline: (§1)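 Seeded soil received test chemicals as a preemergence directed spray, and seedlings at one to two leaves, 2–10 cm tall, received them postemergence, in a non-phytotoxic, surfactant-containing solvent mixture. Pots were held in a greenhouse for approximately 10 d, then rated for injury from 0, no effect, to 100, complete control.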

[2] = test system: barnyardgrass (Echinochloa crus-galli); test: Test A preemergence; details: Echinochloa crus-galli, pre-emergence, 240 h, preemergence, 0 to 100 scale where 0 is no effect and 100 is complete control, read-out: Barnyardgrass plant response rating
Outline: as §1

[3] = test system: ryegrass, Italian (Italian ryegrass, Lolium multiflorum); test: Test A preemergence; details: Lolium multiflorum, pre-emergence, 240 h, preemergence, 0 to 100 scale where 0 is no effect and 100 is complete control, read-out: Ryegrass, Italian plant response rating
Outline: as §1

[4] = test system: ragweed (common ragweed, Ambrosia elatior); test: Test A preemergence; details: Ambrosia artemisiifolia, pre-emergence, 240 h, preemergence, 0 to 100 scale where 0 is no effect and 100 is complete control, read-out: Ragweed plant response rating
Outline: as §1

[5] = test system: pigweed (Amaranthus retroflexus); test: Test A preemergence; details: Amaranthus retroflexus, pre-emergence, 240 h, preemergence, 0 to 100 scale where 0 is no effect and 100 is complete control, read-out: Pigweed plant response rating
Kochia (Kochia scoparia) [6] = test: Test A preemergence; details: Bassia scoparia, pre-emergence, 240 h, preemergence, 0 to 100 scale where 0 is no effect and 100 is complete control, read-out: Kochia plant response rating
Outline: as §1

[7] = test system: Galium (catchweed bedstraw, Galium aparine); test: Test A postemergence; details: Galium, post-emergence, 240 h, postemergence, read-out: Galium plant response rating
Outline: as §1

[8] = test system: giant foxtail (Setaria faberii); test: Test A postemergence; details: Setaria faberi, post-emergence, 240 h, postemergence, read-out: Foxtail, Giant plant response rating
Outline: as §1

[9] = test system: barnyardgrass (Echinochloa crus-galli); test: Test A postemergence; details: Echinochloa crus-galli, post-emergence, 240 h, postemergence, read-out: Barnyardgrass plant response rating
Outline: as §1

corn (Zea mays) = test: Test A postemergence; details: Zea mays, post-emergence, 240 h, postemergence, read-out: Corn plant response rating
Outline: as §1

[10] = test system: ryegrass, Italian (Italian ryegrass, Lolium multiflorum); test: Test A postemergence; details: Lolium multiflorum, post-emergence, 240 h, postemergence, read-out: Ryegrass, Italian plant response rating
Outline: as §1

[11] = test system: ragweed (common ragweed, Ambrosia elatior); test: Test A postemergence; details: Ambrosia artemisiifolia, post-emergence, 240 h, postemergence, read-out: Ragweed plant response rating
Outline: as §1

[12] = test system: blackgrass (Alopecurus myosuroides); test: Test A postemergence; details: Alopecurus myosuroides, post-emergence, 240 h, postemergence, read-out: Blackgrass plant response rating
Outline: as §1

[13] = test system: pigweed (Amaranthus retroflexus); test: Test A postemergence; details: Amaranthus retroflexus, post-emergence, 240 h, postemergence, read-out: Pigweed plant response rating
Outline: as §1

[14] = test system: wheat (Triticum aestivum); test: Test A postemergence; details: Triticum aestivum, post-emergence, 240 h, postemergence, read-out: Wheat plant response rating
Outline: as §1

Kochia (Kochia scoparia) [15] = test: Test A postemergence; details: Bassia scoparia, post-emergence, 240 h, postemergence, read-out: Kochia plant response rating
Outline: as §1

[16] = 125 g ai/ha, visual injury on 0 to 100 scale (0 no effect, 100 complete control), approx. 10 d
[17] = 500 g ai/ha, 0 to 100 scale, 0 is no effect, 100 is complete control

Which pest or weed control at 125 g/ha ([1]; 125 g ai/ha, approx. 10 d) does the source give for `CCc1cc(CC)cc([C@H]2CNC(=O)[C@@H]2C(=O)Nc2cccc(F)c2F)c1` [Compound 1139] here?
Its pest or weed control at 125 g/ha is 90%.

What about the pest or weed control at 500 g/ha ([1]; 500 g ai/ha) of the same molecule?
Its pest or weed control at 500 g/ha is 90%.

And the pest or weed control at 125 g/ha ([2]; 125 g ai/ha, approx. 10 d)?
Its pest or weed control at 125 g/ha is 90%.

What about the pest or weed control at 500 g/ha ([2]; 500 g ai/ha) of the same molecule?
The pest or weed control at 500 g/ha was 90%.

What about the pest or weed control at 125 g/ha ([3]; 125 g ai/ha, approx. 10 d) of the same molecule?
The pest or weed control at 125 g/ha was 30%.

What about the pest or weed control at 500 g/ha ([3]; 500 g ai/ha) of the same molecule?
Its pest or weed control at 500 g/ha is 70%.

And the pest or weed control at 125 g/ha ([4]; 125 g ai/ha, approx. 10 d)?
The pest or weed control at 125 g/ha was 50%.

What about the pest or weed control at 500 g/ha ([4]; 500 g ai/ha) of the same molecule?
Its pest or weed control at 500 g/ha is 50%.

What about the pest or weed control at 125 g/ha ([5]; 125 g ai/ha, approx. 10 d) of the same molecule?
Its pest or weed control at 125 g/ha is 0%.

And the pest or weed control at 500 g/ha ([5]; 500 g ai/ha)?
The pest or weed control at 500 g/ha was 0%.

What about the pest or weed control at 125 g/ha (Kochia (Kochia scoparia) [6]; 125 g ai/ha, approx. 10 d) of the same molecule?
The pest or weed control at 125 g/ha was 30%.

What about the pest or weed control at 500 g/ha (Kochia (Kochia scoparia) [6]; 500 g ai/ha) of the same molecule?
The pest or weed control at 500 g/ha was 60%.

And the pest or weed control at 125 g/ha [7, 16]?
The pest or weed control at 125 g/ha was 50%.

What about the pest or weed control at 500 g/ha [7, 17] of the same molecule?
The pest or weed control at 500 g/ha was 60%.

And the pest or weed control at 125 g/ha [8, 16]?
The pest or weed control at 125 g/ha was 40%.

And the pest or weed control at 500 g/ha [8, 17]?
The pest or weed control at 500 g/ha was 70%.

What about the pest or weed control at 125 g/ha [9, 16] of the same molecule?
The pest or weed control at 125 g/ha was 60%.

And the pest or weed control at 500 g/ha [9, 17]?
The pest or weed control at 500 g/ha was 90%.

And the plant injury at 125 g/ha (corn (Zea mays); [16])?
Its plant injury at 125 g/ha is 60%.

What about the plant injury at 500 g/ha (corn (Zea mays); [17]) of the same molecule?
The plant injury at 500 g/ha was 80%.

And the pest or weed control at 125 g/ha [10, 16]?
Its pest or weed control at 125 g/ha is 40%.

And the pest or weed control at 500 g/ha [10, 17]?
The pest or weed control at 500 g/ha was 50%.

What about the pest or weed control at 125 g/ha [11, 16] of the same molecule?
The pest or weed control at 125 g/ha was 0%.

What about the pest or weed control at 500 g/ha [11, 17] of the same molecule?
Its pest or weed control at 500 g/ha is 40%.

And the pest or weed control at 125 g/ha [12, 16]?
Its pest or weed control at 125 g/ha is 40%.

What about the pest or weed control at 500 g/ha [12, 17] of the same molecule?
Its pest or weed control at 500 g/ha is 60%.

What about the pest or weed control at 125 g/ha [13, 16] of the same molecule?
Its pest or weed control at 125 g/ha is 0%.

And the pest or weed control at 500 g/ha [13, 17]?
The pest or weed control at 500 g/ha was 0%.

What about the plant injury at 125 g/ha [14, 16] of the same molecule?
Its plant injury at 125 g/ha is 50%.

What about the plant injury at 500 g/ha [14, 17] of the same molecule?
Its plant injury at 500 g/ha is 70%.

And the pest or weed control at 125 g/ha (Kochia (Kochia scoparia) [15]; [16])?
The pest or weed control at 125 g/ha was 0%.

And the pest or weed control at 500 g/ha (Kochia (Kochia scoparia) [15]; [17])?
The pest or weed control at 500 g/ha was 0%.
